Measurements reported in patent publication US6756480B2, “Modulators of receptors for parathyroid hormone and parathyroid hormone-related protein” (Amgen Inc., priority 2000, dated 2004).

Columns and labels:
Assay type in all cases: in vivo
rats = assay: Hypercalcemic response to a single SC injection in rats; conditions: single SC injection 340 nmol/kg
Description: (See FIG. 10.) In an aged OVX rat model of osteoporosis, twice weekly dosing was able to reverse more than 50% of the bone loss induced by one year of estrogen ablation. The effect seen in the aged rat model was even greater when combined with a bisphosphonate (APD). In rats, a single SC injection of PTH-(1-34)-Fc (340 nmol/kg) caused a hypercalcemic response which persisted for 72 hours (FIG. 8). This duration is concordant with the rate of clearance of PTH-(1-34)-Fc from the serum, and is consistent with an optimal twice-weekly dosing regimen in rats.

[1] = tested on: aged ovariectomized (OVX) rats; assay: Monotherapy in aged ovariectomized (OVX) rats: twice-weekly treatment, BMD by DEXA and serum calcium
Description: Eleven months after OVX, rats were treated twice per week with phosphate-buffered saline (PBS, vehicle) or with APD (0.5 mg/kg) or with PTH-(1-34)-Fc (50 nmol/kg). DEXA was performed weekly. Blood was drawn 24 hours after the second weekly injection, when the calcemic effects of PTH-Fc are typically maximal. The effects of PTH-Fc administration on lumbar BMD (FIG. 11A), tibia/femur BMD (FIG. 11B), femoral metaphysis BMD (FIG. 11C), and serum calcium (FIG. 11D) were determined.
Sprague Dawley rats were OVX'd at 3 months of age and allowed to lose bone for 11 months. Other rats were sham-operated and treated twice per week with vehicle (PBS). OVX rats were treated twice per week with SC injections of either vehicle or the bisphosphonate APD (pamidronate, 0.5 mg/kg), or with PTH-(1-34)-Fc (50 nmol/kg) or with APD+PTH-(1-34)-Fc. BMD was determined weekly via dual energy X-ray absorptiometry (DEXA). Rats were sacrificed after 4 weeks of treatment. At the start of treatment, OVX rats had significant reductions in BMD at all skeletal sites analyzed, compared to vehicle-treated […] (FIG. 11, p<0.05, 2-way ANOVA).

mice = assay: Mouse bioassay: SC injection days 0, 5, 10; clinical chemistry (calcium, AP, TRAP) and tibial pQCT
Description: Peripheral blood was obtained daily for 3 days following single subcutaneous injections of the indicated compounds.
Peripheral quantitative computed tomography (pQCT) was performed on the proximal tibial metaphysis of mice on day 15, after injections of PTH constructs on day 0, 5 and 10.
We then tested the effects of PTH-(1-34), PTH-(1-34)-Fc, PTH-(1-31)-Fc and PTH-(1-30)-Fc in mice. Four week old male mice were injected on days 0, 5, and 10 with vehicle or with PTH fragments, by SC injection. Peripheral blood was obtained for clinical chemistry at 24, 48, and 72 h. Mice were killed on day 15, vertebrae, tibiae and femurs were harvested for histology and one tibia was collected for bone density measurements (peripheral quantitative computed tomography, pQCT). Clinical chemistry endpoints included total serum calcium, serum alkaline phosphatase (AP, a marker of osteoblast activity), and serum tartrate-resistant acid phosphatase (TRAP, a marker of osteoclast activity). For each animal, the ratio of AP:TRAP was calculated as an index of relative osteoblast activity compared to osteoclast activity. A higher AP:TRAP ratio would indicate a potentially more anabolic agent.

For “PTH-(1-34)-Fc: human PTH-(1-34), SVSEIQLMHNLGKHLNSMERVEWLRKKLQDVHNF, linked at its C-terminus to an Fc domain”, the “persistence of hypercalcemic response” value (rats) was 72 h, the calcemic response ([1]; 50 nmol/kg twice per week, alone) was “mild and transient hypercalcemic response” and the “BMD at the femoral metaphysis” value ([1]; PTH-(1-34)-Fc 50 nmol/kg twice per week, alone or with APD 0.5 mg/kg, p<0.05) was “significant increase in BMD”. The “day after which hypercalcemic response resolved spontaneously” value ([1]; despite continued treatments) was > 10 days, the “reversal of bone loss induced by one year of estrogen ablation” value ([1]; twice weekly dosing) was “more than 50%” and the “duration of treatment at which BMD increase at the femoral metaphysis was significant” value ([1]; twice-weekly treatment) was 4 weeks. For the same substance, the “calculated AP:TRAP ratio” value (mice; 300 nmoles/kg) was “increased over time”, the “serum AP (osteoblast marker)” value (mice; 300 nmoles/kg (given for PTH-(1-34)-Fc), 72 h) was “significantly elevated” and the “time of peak serum calcium” value (mice; 300 nmoles/kg SC) was 24 h. The serum calcium (mice; 300 nmoles/kg SC (equimolar), 24, 48, 72 h) was “dramatic and sustained increase”, the “bone mineral density (proximal tibial metaphysis)” value (mice; 300 nmoles/kg on day 0, 5, 10, pQCT day 15) was “no effect” and the “serum TRAP (osteoclast marker)” value (mice; mice, after single SC injection) was “not significantly changed”.
